This note sets out measurements from patent publication US12544400B2, “Treatment of myopic progression” (University of Utah Research Foundation, priority 2018, dated 2026).

Series [1] deals with lysyl oxidase (LOX). The series is described as follows: peroxidase-coupled fluorometric lysyl oxidase activity assay on conditioned medium of cultured corneal stroma cells. Type of series: cell-based. Conditions: 0.0016 mg/mL CuSO4 in BSS vs BSS control, fibroblast cells from normal corneas and corneas having low corneal stiffness, FIGS. 1A-1B. On the procedure: Cultured corneal stroma cells from normal corneas and corneas having low corneal stiffness (n=3 each) in 10% FBS DMEM were either exposed to BSS control or 0.0016 mg/mL CuSO4 in balanced salt solution (BSS) then filtered through a 0.25 μm filter. Conditioned culture medium underwent a peroxidase-coupled fluorometric activity assay for lysyl oxidase (LOX).
Tissues were collected under sterile techniques in an operative setting. Tissue samples were stored in a 10 cm tissue culture dish in an Optisol solution. Corneal tissue was suspended in 15% fetal bovine serum (FBS) DMEM/F12 with penicillin/streptomycin. Epithelium and Descemet's membrane were removed mechanically under a stereo microscope. The samples were further cut into small pieces by a surgical scissor, and added to 1 mg/mL collagenase; 10 mL per cornea was used. The sample pieces were plated to a 10 cm tissue culture dish and placed in a tissue culture incubator at 37° C. with 5% CO2. After 5 days, the cells were harvested and plated in 10% FBS DMEM without phenol red.
LOX enzyme activity in culture medium was measured using a peroxidase-coupled fluorometric assay using Amplex red. […] The fluorescence of oxidized Amplex red was recorded every 10 minutes using fluorescence plate reader. After subtracting the background fluorescence, the fluorescence intensity was plotted against the incubation time (FIGS. 1A and 1B).

Series [2] has as its system human cadaver corneas. The experiment in a line: cornea radial strain measurement, human cadaver corneas immersed in CuSO4. On the procedure:
(§1) Cornea radial strain measurements were performed on human cadaver corneas and on rabbit corneas. Human cadaver corneas (n=2 pairs) were cultured as previously mentioned in Example 1. The treated group was immersed in 0.0016 mg/ml CuSO4 for 2 weeks. The samples also contained a small portion of sclera at both ends. Mineral oil was applied on the surface of the sclera-cornea-sclera strip to minimize tissue dehydration. Rabbit corneas were divided into 4 groups. Two groups were treatment groups receiving either CuSO4 pentahydrate 0.0025 mg/ml three times per day or CuSO4 pentahydrate 0.0025 mg/ml once per day. Two groups served as control receiving only BSS.
(§2) The sample was coupled between a motor and a transducer that applied a controlled pressure from 5-30 mmHg and measured the resultant radial strain. The sample length between the two gripping jaws was approximately 10 mm. Sample geometric information, including width and thickness, was input into the Rheometrics System Analyzer (RSA) control panel. Sample thickness was measured by an ultrasound pachymeter (DGH 550 Pa-chette2; DGH Technology, Exton, PA).

For series [3], the system named is rabbit corneas. The experiment in a line: cornea radial strain / corneal biomechanics, rabbit corneas after eye drop treatment. It is filed as in vivo. The note with it: CuSO4 pentahydrate 0.0025 mg/ml once or three times per day; compared with laser cross-linking; FIG. 3. On the procedure: as §1, §2
The test system of series [4] is New Zealand white rabbits. The series is described as follows: rabbit corneal topography (diopter measurements). Type of series: in vivo. Conditions: 0.0025 mg/ml once or three times per day or 0.025 mg/ml once per day, 5 weeks; controls no drops, BSS, artificial tears; FIG. 4. As to the method: Copper sulfate pentahydrate (CuSO4) at 0.0025 mg/ml was administered to New Zealand white rabbits at a dose of once per day and three times per day. Additionally, a high concentration sample of 0.025 mg/ml CuSO4 pentahydrate was administered to New Zealand with rabbits once per day during the treatment period. Three different controls were administered either no drops, BSS, or artificial tears. Each of the 6 groups included 6 test subjects each. Topography images were taken before treatment and weekly for 5 weeks. Diopter measurements were the mean K values and at 3 mm. These values were compared to diopter measurements in laser cross-linked corneas after 1 month and 1 year.

Series [5] has as its system rabbits. The experiment in a line: safety of copper eye drops in vivo (ERG, slit-lamp, AS-OCT, histology). The note with it: 0.0025 mg/ml TID or QD, 6 weeks. More on the design: species or system rabbit. On the procedure:
Copper sulfate (CuSO4) pentahydrate solution was prepared at a concentration of 0.0025 mg/ml and administered three times a day (TID) or once a day (QD) to rabbits. An anterior segment evaluation was performed with slit-lamp biomicroscopy and Heidelberg Spectralis anterior segment optical coherence tomography (AS-OCT). Two rabbits (n=4 eyes) were sacrificed at each of day 1, week 1, week 4, and week 6 for copper levels in eye tissues and compared to control (no drops) rabbits. Aqueous humor, vitreous, retina, cornea, lens, and blood samples were analyzed for copper ions using inductively coupled plasma mass spectrometry (ICP-MS).
Rabbits (n=2) were sacrificed after 42 days by intravenous injection of 0.3 ml/kg euthanasia solution and the eyes were enucleated for histological evaluations and reading for signs of inflammation, tissue damage, scarring and fibrosis. The anterior section of the eyes were fixed in 10% formaldehyde-glutaraldehyde solution, dehydrated in a graded series of alcohol, embedded in paraffin, and sectioned with a microtome. The sections were stained with appropriate staining (hematoxylin and eosin and Masson Trichrome).

The subject of series [6] is albino guinea pigs. As to the method: Progressive myopia occurs more often in albino guinea pigs than in their wild type counterparts, even without imposing diffusers or lenses. Guinea pigs were subjected to a cycle of 12 hours of light/12 hours of dark. An eye drop including 0.0025 mg/ml CuSO4 pentahydrate in phosphate buffered ophthalmic solution was administered at approximately 2 weeks of age to the right eyes (OD) of albino guinea pigs (n=4). Left eyes (OS) received control drops (ophthalmic vehicle only). Eye drops (approximately 30 μL) were administered 3 times per day for approximately 6 weeks. Refractive error was measured by a pediatric ophthalmologist prior to treatment on day 1 and at subsequent timepoints according to the schedule depicted in FIGS. 7A-7B. […] FIGS. 7A-7B present average refractive error measurements for the test subjects in each eye with error bars and linear fit, respectively.

The subject of series [7] is New Zealand white rabbit. The note with it: 0.0025 mg/ml 3 times per day for 6 weeks vs vehicle and control groups; FIG. 8.
Method: New Zealand white rabbit right eyes were separated (n=6 per group) into treatment group (0.0025 mg/ml CuSO4 pentahydrate in phosphate buffered ophthalmic solution), vehicle group (phosphate buffered ophthalmic solution), and control group (no drops). Drops were administered 3 times per day for 6 weeks in treatment eyes. Animals were followed weekly for TOP measurements, topography and ocular response analyzer. At the end of the 6 weeks, rabbits were sacrificed and eye was immediately dissected within 30 minutes of sacrifice. Recovered corneas weight was recorded. Samples were reduced with NaBH4 at room temperature then washed with water twice, dried, and hydrolyzed with 6N HCl in vacuo for 18 hours at 110° C. Post hydrolysis, cross-link enrichment was carried out by using a cellulose mini-column method. LNL was measured by mass spectroscopy.
The subject of series [8] is New Zealand white rabbit. Conditions: 0.0016 mg/ml 3x/day for 24 days. On the procedure: New Zealand white rabbit right eyes (n=3) were treated with 0.0016 mg/ml CuSO4 3×/day for 24 days. Left eyes were treated with BSS (TID) for 24 days and served as controls. Corneal-OCT pictures were taken at baseline and at day 24.
Setting [9] is: 0.0016 mg/ml CuSO4 for 2 weeks vs untreated, FIG. 2.

Turning to `[Cu]` [Cu, copper], the LOX enzyme activity result in series [1] was “increased”; in series [1] (listed as copper) it was “dramatically increased”. Besides, the corneal strength entry in series [2] (FIG. 2 legend) is “increased”. Also, the corneal biomechanics entry in series [3] is “improved”. The “diopter measurements (mean K and at 3 mm), change vs control groups” value in series [4] is recorded as “decreased”. Besides, the “toxicity in dissected eye tissues” value in series [5] is reported as “no observed toxicity”.

On to `O.O.O.O.O.O=S(=O)([O-])[O-].[Cu+2]` [CuSO4 pentahydrate, copper (II) sulfate pentahydrate], for which the corneal biomechanics result in series [3] is on record as “comparable to that seen with laser cross-linking”. The “histopathological analysis of dissected eyes” value in series [6] (0.0025 mg/ml 3 times per day, approximately 6 weeks, data not shown) is reported as “no observed toxicity”. Also, in series [6] (0.0025 mg/ml eye drop 3 times per day for approximately 6 weeks, OD vs vehicle OS, FIGS. 7A-7B), the “myopic progression (average refractive error) in the treatment eye” value is recorded as “effective in reducing myopic progression”. For the same compound, the IOP measurements in series [6] (all eyes during the study, within normal limits, data not shown) is 15-25 mmHg. Moreover, the “LNL crosslinking in corneas” value in series [7] is recorded as “increased”.

On to `O=S(=O)([O-])[O-].[Cu+2]` [CuSO4, copper (II) sulfate], for which, in series [2] (setting [9]), the corneal stiffness result was “marked increase” and the radial strain result is listed as “decrease”. Besides, the “average peak radial strain induced by ocular pulse, treated vs untreated corneas” value in series [2] (at 20 mmHg) is given as “about 1.5 times lower”. Moreover, the “increase in corneal strength” value in series [2] (from peak radial strain at 20 mmHg, treated vs untreated) was approximately 50%. The “diopter measurements (mean K and at 3 mm), change vs control groups” value in series [4] is “greater decrease”. In series [8], the “cornea epithelial layer by OCT / gross toxicity to the corneas” value is “no gross toxicity” and the slit-lamp examination entry is given as “no inflammation or opacification”. Further, the “central cornea flattening by OCT” value in series [8] (right eyes n=3 vs BSS left eyes, FIGS. 6A-6F) is given as “cornea flattening in all 3 treatment eyes”.
